Measurements published in US6258790A, “Antisense modulation of integrin α4 expression” (Isis Pharmaceuticals, Inc., priority 1999, dated 2001).
“And” between values parts separate entries of the source, which are not always exact repeats. Identical values can stand only once.

Experiments:
murine integrin α4 mRNA [1] = experiment: Antisense inhibition of murine integrin α4 mRNA expression in P388D (IL-1) macrophage cells (RNA gel, PCR-labeled probe); assay type: cell-based, mouse; conditions: 100 nM; for % Control (murine integrin α4 mRNA) / % Inhib (murine integrin α4 mRNA): Table 8, P388D (IL-1) cells, 3 ug/ml lipofectin; for activity in the mRNA screen: Table 8 assay; for % Control / % Inhib.: Table 9, averages of duplicate samples
Method: Oligonucleotides were initially screened in murine P388D (IL-1) macrophage cells (American Type Culture Collection, Manassas Va.) for 4 hours at an oligonucleotide concentration of 100 nM in 3 ug/ml lipofectin.

murine integrin α4 mRNA [2] = experiment: as above; assay type: cell-based, mouse; conditions: Table 9, averages of duplicate samples
murine integrin α4 = experiment: Antisense inhibition of murine integrin α4 protein expression in IC-21 macrophage cells (flow cytometry, CD49d-PE); assay type: cell-based, mouse; conditions: for % Control (integrin α4 protein) / % Inhib (integrin α4 protein): Table 11
Method: Murine IC-21 macrophage cells (American Type Culture Collection, Manassas, Va.) were used for further study. Additional oligonucleotides were designed to target murine integrin α4. These are shown in Table 10; all 2' MOE nucleotides are shown in bold and remaining positions are 2' deoxy. All 2'-MOE cytosines in these compounds are 5' methylcytosines. IC-21 cells were seeded at 5×10^4 cell/well plates two days before assay. […] Wells were triplicates.
Cells (triplicates) were seeded at 2.5×10^4 cells/well in 24-well plates the day before treatment. Oligonucleotide concentrations were 0.2, 1, 5, 25 and 50 nM in 3 ug/ml LIPOFECTIN. Cells were harvested with 2 mM EDTA for 4 minutes, then 1 ml of 2% BSA, 0.2% azide was added per contents of each well.
IC-21 cells were treated with 0.3, 1, 3, 10 and 30 nM oligonucleotide with 3 ug/ml LIPOFECTIN for 4 hours. Cells were incubated for 24 hours, harvested with trypsin, stained with 2 ug/ml CD49d-PE and rat IgG2B as in previous examples.
These compounds were tested for ability to inhibit integrin α4 protein expression.

murine integrin α4 RNA = experiment: Dose response effect on integrin α4 RNA levels in IC-21 cells; assay type: cell-based, mouse; conditions: for Percent inhib. (integrin α4 RNA) / Percent of control (integrin α4 RNA): Table 14, duplicate
Method: another dose response experiment was done to determine the IC50 of ISIS 16433 for inhibition of integrin α4 RNA. IC-21 cells were tested in duplicate with ISIS 16433 at 6.25, 12.5, 25 or 50 nM with 3 ug/ml LIPOFECTIN.
RNA was purified with Qiagen Qiashredder/RNEASY™ Kit according to manufacturer's directions. Probes were random primed using a prime-a-Gene Kit (Promega, Madison, Wis.).

human integrin α4 [3] = experiment: Integrin α4 protein expression in A375 cells after electroporation of oligonucleotide (flow cytometry); assay type: cell-based; conditions: 24 hours
Method: A375 cells were treated with ISIS 107245, 107248, 107252, 107255 and 107259 by electroporation at 175 volts, r=1, c=1000, 0.2 ml Opti-MEM, 1×10^6 cells /ml, 2 mm gap electrode using a BTX Electro Cell Manipulator 600 (Genetronics, San Diego Calif.). Oligonucleotide concentrations were 1, 3, 10 and 30 μM. Cells were harvested 24 hours after oligonucleotide treatment and strained with 2 ug/ml CD49d-FITC for flow cytometry as in the previous examples.
ISIS 107248 was compared directly to ISIS 27104 for ability to inhibit integrin α4 expression in A375 melanoma cells. Oligonucleotides were electroporated into cells as in the previous example.

human integrin α4 [4] = experiment: Inhibition of human integrin α4 protein levels by antisense oligonucleotides (LIPOFECTIN, flow cytometry with CD49d-FITC) in A375 melanoma cells; assay type: cell-based; conditions: Table 24; A375 cells; lipofectin; as Example 8
[5] = IC-21 cells, 25 nM, triplicates

## 15600 (antisense CACGCCCCGTTTCTGTGGCC; phosphorothioate, 2'-MOE, further chemistry not given here) [compound 15600]
Murine integrin α4 mRNA [1]
  % Control (murine integrin α4 mRNA): 93%
  % Inhib (murine integrin α4 mRNA): 07%

## 15601 (antisense CACGCCCCGTTTCTGTGGCC; phosphodiester, 2'-MOE, further chemistry not given here) [compound 15601]
Murine integrin α4 mRNA [1]
  % Control (murine integrin α4 mRNA): 60%
  % Inhib (murine integrin α4 mRNA): 40%

## 15602 (antisense CACGCCCCGTTTCTGTGGCC; phosphorothioate DNA, further chemistry not given here) [compound 15602]
Murine integrin α4 mRNA [1]
  % Control (murine integrin α4 mRNA): 48%
  % Inhib (murine integrin α4 mRNA): 52%

## 15603 (antisense GGATGCTTCAGGCTCTGGCC; phosphorothioate DNA, further chemistry not given here) [compound 15603]
Murine integrin α4 mRNA [1]
  % Control (murine integrin α4 mRNA): 38%
  % Inhib (murine integrin α4 mRNA): 62%

## 15604 (antisense GGAGCGATCGTAGTGGCCAG; phosphorothioate DNA, further chemistry not given here) [compound 15604]
Murine integrin α4 mRNA [1]
  % Control (murine integrin α4 mRNA): 134%

## 15605 (antisense CCGGTGCTGGCAGGCGACAG; phosphorothioate DNA, further chemistry not given here) [compound 15605]
Murine integrin α4 mRNA [1]
  % Control (murine integrin α4 mRNA): 84%
  % Inhib (murine integrin α4 mRNA): 16%

## 15606 (antisense GATGAAGTGCAGCAGCGTGT; phosphorothioate DNA, further chemistry not given here) [compound 15606]
Murine integrin α4 mRNA [1]
  % Control (murine integrin α4 mRNA): 72%
  % Inhib (murine integrin α4 mRNA): 28%

## 15607 (antisense GGCCACTGACCAGAGTTGCA; phosphorothioate DNA, further chemistry not given here) [compound 15607]
Murine integrin α4 mRNA [2]; 12.5 nM
  % Control: 78%
  % Inhib.: 22%
Murine integrin α4 mRNA [2]; 25 nM
  % Control: 67%
  % Inhib.: 33%
Murine integrin α4 mRNA [2]; 50 nM
  % Control: 50%
  % Inhib.: 50%
Murine integrin α4; [5]
  % Control (integrin α4 protein): 82%
  % Inhib (integrin α4 protein): 18%
Murine integrin α4 mRNA [1]
  % Control (murine integrin α4 mRNA): 26%
  % Inhib (murine integrin α4 mRNA): 74%
  activity in the mRNA screen: most active
  % Control: 55%
  % Inhib.: 45%

## 15608 (antisense CCGCAGCCATGCGCTCTTGG; phosphorothioate DNA, further chemistry not given here) [compound 15608]
Murine integrin α4 mRNA [2]; 12.5 nM
  % Control: 59%
  % Inhib.: 41%
Murine integrin α4 mRNA [2]; 25 nM
  % Control: 29%
  % Inhib.: 71%
Murine integrin α4 mRNA [2]; 50 nM
  % Control: 23%
  % Inhib.: 77%
Murine integrin α4; [5]
  % Control (integrin α4 protein): 63%
  % Inhib (integrin α4 protein): 37%
Murine integrin α4 mRNA [1]
  % Control (murine integrin α4 mRNA): 16%
  % Inhib (murine integrin α4 mRNA): 84%
  activity in the mRNA screen: most active
  % Control: 39%
  % Inhib.: 61%

## 15609 (antisense CACCTCGCTTCCGCAGCCAT; phosphorothioate DNA, further chemistry not given here) [compound 15609]
Murine integrin α4 mRNA [2]; 12.5 nM
  % Control: 54%
  % Inhib.: 46%
Murine integrin α4 mRNA [2]; 25 nM
  % Control: 24%
  % Inhib.: 76%
Murine integrin α4 mRNA [2]; 50 nM
  % Control: 28%
  % Inhib.: 72%
Murine integrin α4; [5]
  % Control (integrin α4 protein): 57%
  % Inhib (integrin α4 protein): 43%
Murine integrin α4 mRNA [1]
  % Control (murine integrin α4 mRNA): 07%
  % Inhib (murine integrin α4 mRNA): 93%
  activity in the mRNA screen: most active
  % Control: 57%
  % Inhib.: 43%

## 16433 (CCGCAGCCATGCGCTCTTGG; phosphorothioate, 2'-MOE/deoxy, further chemistry not given here) [compound 16433]
Murine integrin α4 RNA; IC-21 cells, read-out: IC50 for integrin α4 RNA reduction
  IC50: ~10 nM
Murine integrin α4 RNA; 6.25 nM
  Percent inhib. (integrin α4 RNA): 41%
  Percent of control (integrin α4 RNA): 59%
Murine integrin α4 RNA; 12.5 nM
  Percent inhib. (integrin α4 RNA): 44%
  Percent of control (integrin α4 RNA): 46%
Murine integrin α4 RNA; 25 nM
  Percent inhib. (integrin α4 RNA): 72%
  Percent of control (integrin α4 RNA): 28%
Murine integrin α4 RNA; 50 nM
  Percent inhib. (integrin α4 RNA): 57%
  Percent of control (integrin α4 RNA): 43%
Murine integrin α4; IC-21 cells
  IC50: ~1 nM
Murine integrin α4; IC-21 cells, 30 nM
  inhibition of protein levels: inhibit protein levels to below basal levels
Murine integrin α4; [5]
  % Control (integrin α4 protein): 23%
Murine integrin α4; IC-21 cells, 25 nM, triplicates, 0.025 µM
  % Inhib (integrin α4 protein): 77% and > 50%
Murine integrin α4; Table 12, 0.2 nM, triplicates
  % Inhib.: 15%
  % of control: 85%
Murine integrin α4; Table 12, 1 nM, triplicates
  % Inhib.: 38%
  % of control: 62%
Murine integrin α4; Table 12, 5 nM, triplicates
  % Inhib.: 63%
  % of control: 37%
Murine integrin α4; Table 12, 25 nM, triplicates
  % Inhib.: 80%
  % of control: 20%
Murine integrin α4; Table 12, 50 nM, triplicates
  % Inhib.: 70%
  % of control: 30%
Murine integrin α4; Table 13, 0.3 nM, 24 hours
  % Inhib.: 11%
  % of control: 89%
Murine integrin α4; Table 13, 1 nM, 24 hours
  % Inhib.: 32%
  % of control: 68%
Murine integrin α4; Table 13, 3 nM, 24 hours
  % Inhib.: 75%
  % of control: 25%
Murine integrin α4; Table 13, 10 nM, 24 hours
  % Inhib.: 97%
Murine integrin α4; Table 13, 30 nM, 24 hours
  % of control: -14%
Murine integrin α4; Table 16, 0.3 nM
  % Control: 146%
Murine integrin α4; Table 16, 1 nM
  % Control: 94%
Murine integrin α4; Table 16, 3 nM
  % Control: 64%
  % Inhib.: 36%
Murine integrin α4; Table 16, 10 nM
  % Control: 02%
  % Inhib.: 98%

## 16478 (GCCGACACCCGTTCGTTCGG; phosphorothioate DNA, further chemistry not given here) [compound 16478]
Murine integrin α4 RNA; 6.25 nM
  Percent inhib. (integrin α4 RNA): 25%
  Percent of control (integrin α4 RNA): 75%
Murine integrin α4 RNA; 12.5 nM
  Percent inhib. (integrin α4 RNA): 40%
  Percent of control (integrin α4 RNA): 60%
Murine integrin α4 RNA; 25 nM
  Percent inhib. (integrin α4 RNA): 76%
  Percent of control (integrin α4 RNA): 24%
Murine integrin α4 RNA; 50 nM
  Percent inhib. (integrin α4 RNA): 74%
  Percent of control (integrin α4 RNA): 26%
Murine integrin α4; [5]
  % Control (integrin α4 protein): 92%
Murine integrin α4; Table 12, 5 nM, triplicates
  % of control: 95%
Murine integrin α4; Table 12, 25 nM, triplicates
  % Inhib.: 13%
  % of control: 87%
Murine integrin α4; Table 12, 50 nM, triplicates
  % Inhib.: 16%
  % of control: 84%
Murine integrin α4; Table 13, 0.3 nM, 24 hours
  % of control: 137%
Murine integrin α4; Table 13, 1 nM, 24 hours
  % of control: 131%
Murine integrin α4; Table 13, 3 nM, 24 hours
  % of control: 127%
Murine integrin α4; Table 13, 10 nM, 24 hours
  % of control: 130%
Murine integrin α4; Table 13, 30 nM, 24 hours
  % of control: 108%

## 107245 (antisense GTTGATATAACTCCAACTGT; chemistry not given here) [compound 107245]
Human integrin α4 [3]; Table 25, 1 nM as printed
  % Control: 27.1%
Human integrin α4 [3]; Table 25, 10 nM
  % Control: 64.4%
Human integrin α4 [3]; Table 25, 30 nM
  % Control: 30.3%
Human integrin α4 [4]
  % Control: 35%

## 107252 (antisense AAGAGTAATCATTGCTGAGA; chemistry not given here) [compound 107252]
Human integrin α4 [3]; Table 25, 1 nM as printed
  % Control: 17.4%
Human integrin α4 [3]; Table 25, 10 nM
  % Control: 7.9%
Human integrin α4 [3]; Table 25, 30 nM
  % Control: 2.9%
Human integrin α4 [4]
  % Control: 35%

## 107255 (antisense AAGTCTAAGACTTCTCCAGT; chemistry not given here) [compound 107255]
Human integrin α4 [3]; Table 25, 1 nM as printed
  % Control: 50.6%
Human integrin α4 [3]; Table 25, 10 nM
  % Control: 22.9%
Human integrin α4 [3]; Table 25, 30 nM
  % Control: 19.4%
Human integrin α4 [4]
  % Control: 36%

## 107259 (antisense GGAACACAGCCCGTAGGAAA; chemistry not given here) [compound 107259]
Human integrin α4 [3]; Table 25, 1 nM as printed
  % Control: 17.7%
Human integrin α4 [3]; Table 25, 10 nM
  % Control: 42.9%
Human integrin α4 [3]; Table 25, 30 nM
  % Control: 19.4%
Human integrin α4 [4]
  % Control: 37%
